Source: US11464750B2, “Anticancer agent and use thereof” (priority 2017, dated 2022)

Key:
Type in all cases: cell-based, human
TKG0210 cells = assay: Cell Death Detection ELISA, TKG0210; conditions: 0.5 μM, 72 hours
Procedure: The induction of apoptosis by 3EZ,20Ac-ingenol treatment was examined by detecting histone-binding DNA fragmentation in the cytoplasm using a Cell Death Detection ELISA kit (Roche Applied Science).
Specifically, BALL-1 cells, TKG0210 cells, and TKG0377 cells were inserted into tubes at 5×10^4 cells/well/200 μL, and incubated for 6, 12, 24, 48, and 72 hours in the presence of 3EZ,20Ac-ingenol at a final concentration of 0.5 μM. Subsequently, the respective cells were lysed in a lysis buffer. Subsequently, the supernatant of cell debris of the respective cells was collected and transferred to an ELISA plate, and an absorbance at a wavelength of 405 nm was measured to measure the induction of apoptosis.

ATR protein = assay: Western blotting, ATR protein, JeKo-1 cells; conditions: 0.5 μM
Procedure: (§1) Specifically, JeKo-1 cells were cultured for 0 (control), 12, 24, and 48 hours in the presence of 0.5 μM of 3EZ,20Ac-ingenol. In addition, Panc-1 cells were cultured for 0 (control), 12, 24, and 48 hours in the presence of 3 μM of 3EZ,20Ac-ingenol.
(§2) Subsequently, ATR protein, p53 protein, and phosphorylated p53 (hereinafter also referred to as “p-p53”) protein in the respective cells were respectively detected using an anti-ATR antibody (Cell Signaling Technology), an anti-p53 antibody (Santa Cruz), and an anti-p-p53 antibody (Cell Signaling Technology). Furthermore, as a loading control, actin protein was detected using an anti-actin antibody (Sigma).

caspase 3 [1] = assay: Western blotting, activated caspase 3, Panc-1 cells; conditions: 3 μM, 12 hours after treatment
Procedure: (§3) Specifically, JeKo-1 cells were cultured for 0 (control), 12, 24, and 48 hours in the presence of 0.5 μM of 3EZ,20Ac-ingenol. In addition. Panc-1 cells were cultured for 0 (control), 12, 24, and 48 hours in the presence of 3 μM of 3EZ,20Ac-ingenol. Subsequently, activation of caspase 3 in the respective cells was detected by Western blotting using an anti-activated-caspase antibody (R & D Systems). Furthermore, as a loading control, actin protein was detected using an anti-actin antibody (Sigma).

[2] = test system: phosphorylated H2AX (γH2AX); assay: Western blotting, phosphorylated H2AX, Panc-1 cells; conditions: 3 μM, 12, 24, 48 hours
Procedure: (§4) Specifically, JeKo-1 cells were cultured for 0 (control), 12, 24 and 48 hours in the presence of 0.5 μM of 3EZ,20Ac-ingenol. In addition, Panc-1 cells were cultured for 0 (control), 12, 24, and 48 hours in the presence of 3 μM of 3EZ,20Ac-ingenol.
(§5) Subsequently, phosphorylation of H2AX in the respective cells was detected using an anti-phosphorylated-H2AX antibody (Millipore). In addition, p21 protein was detected using an anti-p21 antibody (Cell Signaling Technology). Furthermore, as a loading control, actin protein was detected using an anti-actin antibody (Sigma).

[3] = test system: phosphorylated H2AX (γH2AX); assay: Western blotting, phosphorylated H2AX, JeKo-1 cells; conditions: 0.5 μM, 12 hours after treatment
Procedure: as §4, §5

[4] = test system: phosphorylated Akt (Ser^473); assay: Western blotting, p-Akt (Ser473), TKG0377 cells; conditions: 0.5 μM
Procedure: The effect of 3EZ,20Ac-ingenol treatment on a PI3K/Akt signaling pathway was examined. Specifically, BALL-1 cells, TKG0210 cells, and TKG0377 cells were cultured for 48 hours in the presence of 3EZ,20Ac-ingenol at a final concentration of 0.5 μM, and by Western blotting using an anti-p-Akt (Ser^473) antibody (Cell Signaling Technology), phosphorylation of the 473th serine residue of an Akt protein in respective fractions of the entire cell, a nucleus, and a cytoplasm was analyzed. In addition, cells cultured in the absence of 3EZ,20Ac-ingenol were used as controls.
BALL-1 cells, TKG0210 cells, and TKG0377 cells were cultured for 24 and 48 hours in the presence of 3EZ,20Ac-ingenol at a final concentration of 0.5 μM, and abundances of p-Akt in the nuclear fraction and the cytoplasm fraction were analyzed by Western blotting. In addition, respective cells cultured in the absence of 3FZ,20Ac-ingenol were used as controls.

JeKo-1 cells = assay: MTT assay, JeKo-1 cells; conditions: 48 hours
Procedure: JeKo-1 cells of a cell line derived from a human mantle cell lymphoma were seeded in a 96-well plate at 1×10^4 cells/well/100 μL. In addition, Panc-1 cells of a cell line derived from a human pancreatic cancer were seeded in a 96-well plate at 3×10^3 cells/well/100 μL.
Subsequently, 3EZ,20Ac-ingenol at final concentrations of 0 (control), 0.1, 0.5, 1, 5, and 10 μM was added the wells of the respective cells, and culturing was performed for 48 hours. Subsequently, cell proliferation was examined by MTT assay using a Cell Proliferation Kit I (Roche Applied Science).
First, JeKo-1 cells were seeded in a 96-well plate at 1×10^4 cells/well/100 μL. Subsequently, irinotecan at a final concentration of 0 (control), 0.5, 1, 5, 10, 20, and 30 μM was added to the wells of the cells and culturing was performed for 48 hours. In addition, Panc-1 cells were seeded in a 96-well plate at 3×10^3 cells/well/100 μL. Subsequently, irinotecan at a final concentration of 0 (control), 0.5, 1, 5, 10, 20, 30, and 50 μM was added to the wells of the cells and culturing was performed for 48 hours. Subsequently, cell proliferation was examined by MTT assay using a Cell Proliferation Kit I (Roche Applied Science).

[5] = test system: phosphorylated p53 (p-p53) protein; assay: Western blotting, phosphorylated p53, JeKo-1 cells; conditions: 0.5 μM, entire cells
Procedure: as §1, §2

caspase 3 [6] = assay: Western blotting, activated caspase 3, JeKo-1 cells; conditions: 0.5 μM, 48 hours after treatment
Procedure: as §3

## CCCCC/C=C\C=C\C(=O)O[C@H]1C(C)=C[C@]23C(=O)[C@@H](C=C(COC(C)=O)[C@@H](O)[C@]12O)[C@H]1[C@@H](C[C@H]3C)C1(C)C [3EZ,20Ac-ingenol, 3-O-(2′E,4′Z-decadienoyl)-20-O-acetylingenol]
TKG0210 cells
  amount of fragmented DNA (apoptosis): almost no fragmented DNA was detected
ATR protein; 12 hours, further increase 24 hours after treatment
  expression level of ATR protein: an increase in expression level of ATR protein was recognized
ATR protein; 48 hours after treatment
  expression level of ATR protein: a decrease was recognized
Caspase 3 [1]
  activation of caspase 3: activation of caspase 3 was observed
[2]
  phosphorylation of H2AX: phosphorylation of H2AX was not detected
[3]
  phosphorylation of H2AX: phosphorylation of H2AX was detected
[4]; 24 and 48 hours, cytoplasm fraction and nuclear fraction
  abundance of p-Akt: no decrease in abundance of p-Akt was observed
[4]; 48 hours, cytoplasm fraction
  abundance of p-Akt: remained almost unchanged
[4]; 48 hours, nuclear fraction
  abundance of p-Akt: increased
JeKo-1 cells; 1 to 10 μM of 3EZ,20Ac-ingenol
  proliferation inhibition of JeKo-1 cells: grown cells were almost eliminated
JeKo-1 cells; MTT assay, read-out: IC50 with respect to the JeKo-1 cells
  IC50: 500 nM
[5]
  phosphorylation of p53: phosphorylation of p53 was not confirmed
Caspase 3 [6]
  activation of caspase 3: activation of caspase 3 was observed
